Results from US11529354B2, “Methods and compositions for the treatment of tuberculosis” (PRESIDENT AND FELLOWS OF HARVARD COLLEGE, priority 2017, dated 2022).
In brackets after ≈: the same amount, converted by molar mass. Where two headings read alike, the source gives them in different places.

Experiments:
[1] = test system: clinical Mycobacterium tuberculosis strains (HrRr: 77#, 76#, 80#); assay: microbe, parasite or virus in culture; format: cell-based; details: for MIC: Mycobacterium tuberculosis
[2] = test system: MDR-MTB isolates LZ94 and LZ99; assay: microbe, parasite or virus in culture; format: cell-based, Mycobacterium tuberculosis
[3] = Mycobacterium tuberculosis, read-out: MIC

In the case of `Cc1ccc2[nH]c3c(c2c1)CCCC3NCc1ccccc1` (stereo not shown) [CAS 118498-98-9, N-benzyl-6-methyl-2,3,4,9-tetrahydro-1H-carbazol-1-amine], the “concentration increase required to inhibit the drug resistant strains” value [1] is reported as “four-fold”, the MIC [1] is reported as 3.2 µg/mL (≈ 11 µM) and the MIC ([1]; strain 76#, HrRr) is reported as 25.6 µg/mL (≈ 88.2 µM). The MIC ([1]; strain 80#, HrRr) was 25.6 µg/mL (≈ 88.2 µM).

Molecule `CO[C@@H]1[C@@H](OC(=O)c2ccc(C)[nH]2)[C@@H](O)[C@H](Oc2ccc3c(O)c(NC(=O)c4ccc(O)c(CC=C(C)C)c4)c(=O)oc3c2Cl)OC1(C)C` [NSC 227186, [(3R,4S,5R,6S)-6-[8-chloro-4-hydroxy-3-[[4-hydroxy-3-(3-methylbut-2-enyl)benzoyl]amino]-2-oxochromen-7-yl]oxy-5-hydroxy-3-methoxy-2,2-dimethyloxan-4-yl]5-methyl-1H-pyrrole-2-carboxylate] has an MIC [2, 3] of 0.625 µg/mL (≈ 0.897 µM).

Molecule `Cn1ccc(=Nc2ccc(NC(=O)c3ccc(N=c4ccn(C)c5ccc([N+](=O)[O-])cc45)cc3)cc2)cc1` [NSC 260594, 4-[(1-methyl-6-nitroquinolin-4-ylidene)amino]-N-[4-[(1-methylpyridin-4-ylidene)amino]phenyl]benzamide] has an MIC [2] of 1.25 µg/mL (≈ 2.48 µM), an MIC ([2]; Mycobacterium tuberculosis, Table 7 and text, […], read-out: MIC) of 0.625 µg/mL (≈ 1.24 µM) and an MIC [2, 3] of 0.625 µg/mL (≈ 1.24 µM). The MIC ([2]; Table 7 and text, […], listed as Formula XI) was 1.25 µg/mL (≈ 2.48 µM).

Work on `CO[C@H]1/C=C/O[C@@]2(C)Oc3c(C)c(O)c4c(O)c(c(/C=N/N5CCN(C)CC5)c(O)c4c3C2=O)NC(=O)/C(C)=C\C=C\[C@H](C)[C@H](O)[C@@H](C)[C@@H](O)[C@@H](C)[C@H](OC(C)=O)[C@@H]1C` [Rifampicin, reference compound] yielded an MIC ([2]; Mycobacterium tuberculosis) of 2 µg/mL (≈ 2.43 µM).
